In US20260365670A1, “EGFR INHIBITORS AND USES THEREOF” (DIZAL (JIANGSU) PHARMACEUTICAL CO., LTD., priority 2022, published 2026):
Read-outs that look alike come from different tables or passages of the source.

Tests used:
PC-9 = test: Cell proliferation assay, PC-9 cells (CellTiter-Glo, 72 hours); format: cell-based; conditions: PC9 cells, CellTiter-Glo, read-out: PC9 GI50
Procedure, shortened: (§1)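 GI50 is the concentration giving 50% proliferation inhibition. Growth for this was normalised to a baseline viability reading taken when compound was added, and to DMSO wells. PC-9 (500 cells/well) and mutant-EGFR Ba/F3 (5000 cells/well) are treated after overnight seeding in RPMI1640-based medium.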

EGFR (C797S L858R) = molecular target: T1, EGFR (C797S L858R) (Homo sapiens, UniProt P00533, C797S/L858R); test: Inhibition of EGFR (C797S L858R) biochemical enzymatic activity (HTRF); conditions: EGFR L858-C797S, 1 mM ATP, 1 h, room temperature, read-out: IC50 (nM) @L858-C797S
T1 construct: purchased signalchem
T1 sequence (P00533 25-1210 C797S/L858R): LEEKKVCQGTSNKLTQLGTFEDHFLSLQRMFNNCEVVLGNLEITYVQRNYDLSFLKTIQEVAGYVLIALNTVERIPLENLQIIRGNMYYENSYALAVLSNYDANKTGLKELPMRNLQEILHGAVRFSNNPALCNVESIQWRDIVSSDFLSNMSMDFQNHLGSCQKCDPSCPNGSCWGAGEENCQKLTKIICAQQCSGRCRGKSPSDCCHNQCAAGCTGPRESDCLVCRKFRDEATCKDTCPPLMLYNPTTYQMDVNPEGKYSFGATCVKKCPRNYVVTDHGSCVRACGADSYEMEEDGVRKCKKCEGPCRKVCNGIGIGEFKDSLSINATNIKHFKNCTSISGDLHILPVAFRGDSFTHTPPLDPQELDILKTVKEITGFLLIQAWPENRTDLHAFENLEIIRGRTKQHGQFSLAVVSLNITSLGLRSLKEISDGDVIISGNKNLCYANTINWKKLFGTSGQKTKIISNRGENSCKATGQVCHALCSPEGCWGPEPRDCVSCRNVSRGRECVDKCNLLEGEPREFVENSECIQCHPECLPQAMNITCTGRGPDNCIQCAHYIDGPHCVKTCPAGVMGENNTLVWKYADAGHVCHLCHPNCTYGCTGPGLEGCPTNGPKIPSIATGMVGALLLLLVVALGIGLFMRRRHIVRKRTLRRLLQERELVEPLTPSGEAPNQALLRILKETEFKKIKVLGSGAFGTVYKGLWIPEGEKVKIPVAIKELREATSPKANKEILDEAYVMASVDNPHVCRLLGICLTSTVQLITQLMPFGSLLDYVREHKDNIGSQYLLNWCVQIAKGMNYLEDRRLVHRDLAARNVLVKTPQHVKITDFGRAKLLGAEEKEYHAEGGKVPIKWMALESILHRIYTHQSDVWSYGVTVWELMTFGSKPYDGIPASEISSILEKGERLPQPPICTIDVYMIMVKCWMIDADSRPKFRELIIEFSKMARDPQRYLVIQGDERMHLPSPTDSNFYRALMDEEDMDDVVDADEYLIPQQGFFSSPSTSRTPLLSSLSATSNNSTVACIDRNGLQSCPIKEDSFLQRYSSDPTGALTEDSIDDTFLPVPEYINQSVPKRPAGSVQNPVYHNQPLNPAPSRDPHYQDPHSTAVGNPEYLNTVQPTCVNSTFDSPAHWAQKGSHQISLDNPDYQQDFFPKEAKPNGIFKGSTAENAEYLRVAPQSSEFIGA
Procedure, shortened: (§2)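 Enzyme preincubated with compound, then ATP (1 mM) and TK substrate-biotin (1 μM) added; 1 h RT; stopped with EDTA-containing detection mix; HTRF read (ex 320, em 615/665 nm); IC50 by 4-parameter logistic fit.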

EGFR L858R/T790M = molecular target: T2, EGFR L858R/T790M (Homo sapiens, UniProt P00533, L858R/T790M); test: Inhibition of EGFR L858R/T790M biochemical enzymatic activity (HTRF); conditions: EGFR L858R-T790M, 1 mM ATP, 1 h, room temperature, read-out: IC50 (nM) @L858R-T790M
T2 construct: purchased Carna Bio
T2 sequence (P00533 25-1210 T790M/L858R): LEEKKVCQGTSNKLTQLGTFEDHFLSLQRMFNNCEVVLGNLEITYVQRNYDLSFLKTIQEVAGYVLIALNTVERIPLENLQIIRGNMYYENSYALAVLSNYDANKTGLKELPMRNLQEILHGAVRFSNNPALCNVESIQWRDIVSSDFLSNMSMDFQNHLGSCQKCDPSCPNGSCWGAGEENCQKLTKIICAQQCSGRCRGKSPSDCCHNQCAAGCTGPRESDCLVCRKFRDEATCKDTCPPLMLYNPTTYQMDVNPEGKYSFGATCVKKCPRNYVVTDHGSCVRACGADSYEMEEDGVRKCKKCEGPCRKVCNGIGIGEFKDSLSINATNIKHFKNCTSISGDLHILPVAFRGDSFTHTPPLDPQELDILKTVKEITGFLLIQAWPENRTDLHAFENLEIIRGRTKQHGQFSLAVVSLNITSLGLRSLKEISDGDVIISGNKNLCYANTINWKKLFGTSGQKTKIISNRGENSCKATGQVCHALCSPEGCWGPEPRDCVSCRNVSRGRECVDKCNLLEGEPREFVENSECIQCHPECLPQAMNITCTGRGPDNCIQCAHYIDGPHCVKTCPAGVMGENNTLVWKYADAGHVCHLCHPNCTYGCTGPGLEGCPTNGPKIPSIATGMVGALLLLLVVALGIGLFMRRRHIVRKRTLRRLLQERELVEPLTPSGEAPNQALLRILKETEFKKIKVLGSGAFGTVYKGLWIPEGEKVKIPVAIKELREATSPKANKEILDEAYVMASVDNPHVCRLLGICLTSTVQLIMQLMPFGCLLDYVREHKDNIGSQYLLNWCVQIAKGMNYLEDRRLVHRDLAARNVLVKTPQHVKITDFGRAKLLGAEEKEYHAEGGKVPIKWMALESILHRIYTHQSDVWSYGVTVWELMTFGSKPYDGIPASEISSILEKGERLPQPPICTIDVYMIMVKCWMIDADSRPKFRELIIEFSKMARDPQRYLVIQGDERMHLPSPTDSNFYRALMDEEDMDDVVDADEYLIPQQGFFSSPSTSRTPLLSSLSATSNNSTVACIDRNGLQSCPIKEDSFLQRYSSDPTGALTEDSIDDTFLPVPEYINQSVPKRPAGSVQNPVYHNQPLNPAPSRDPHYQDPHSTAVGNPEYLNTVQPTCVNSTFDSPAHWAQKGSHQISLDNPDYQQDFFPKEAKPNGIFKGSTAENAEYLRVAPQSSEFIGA
Procedure, shortened: as §2

EGFR Exon19Del/T790M = molecular target: T3, EGFR Exon19Del/T790M (Homo sapiens, UniProt P00533, DEL746-750/T790M); test: Inhibition of EGFR Exon19Del/T790M biochemical enzymatic activity (HTRF); conditions: EGFR Del19-T790M, 1 mM ATP, 1 h, room temperature, read-out: IC50 (nM) @Del19-T790M
T3 construct: purchased Carna Bio
Procedure, shortened: as §2

EGFR wild type = molecular target: T4, EGFR wild type (Homo sapiens, UniProt P00533); test: Inhibition of EGFR wild type biochemical enzymatic activity (HTRF); conditions: EGFR WT, 1 mM ATP, 1 h, room temperature, read-out: IC50 (nM) @WT
T4 construct: purchased Carna Bio
T4 sequence (P00533 25-1210): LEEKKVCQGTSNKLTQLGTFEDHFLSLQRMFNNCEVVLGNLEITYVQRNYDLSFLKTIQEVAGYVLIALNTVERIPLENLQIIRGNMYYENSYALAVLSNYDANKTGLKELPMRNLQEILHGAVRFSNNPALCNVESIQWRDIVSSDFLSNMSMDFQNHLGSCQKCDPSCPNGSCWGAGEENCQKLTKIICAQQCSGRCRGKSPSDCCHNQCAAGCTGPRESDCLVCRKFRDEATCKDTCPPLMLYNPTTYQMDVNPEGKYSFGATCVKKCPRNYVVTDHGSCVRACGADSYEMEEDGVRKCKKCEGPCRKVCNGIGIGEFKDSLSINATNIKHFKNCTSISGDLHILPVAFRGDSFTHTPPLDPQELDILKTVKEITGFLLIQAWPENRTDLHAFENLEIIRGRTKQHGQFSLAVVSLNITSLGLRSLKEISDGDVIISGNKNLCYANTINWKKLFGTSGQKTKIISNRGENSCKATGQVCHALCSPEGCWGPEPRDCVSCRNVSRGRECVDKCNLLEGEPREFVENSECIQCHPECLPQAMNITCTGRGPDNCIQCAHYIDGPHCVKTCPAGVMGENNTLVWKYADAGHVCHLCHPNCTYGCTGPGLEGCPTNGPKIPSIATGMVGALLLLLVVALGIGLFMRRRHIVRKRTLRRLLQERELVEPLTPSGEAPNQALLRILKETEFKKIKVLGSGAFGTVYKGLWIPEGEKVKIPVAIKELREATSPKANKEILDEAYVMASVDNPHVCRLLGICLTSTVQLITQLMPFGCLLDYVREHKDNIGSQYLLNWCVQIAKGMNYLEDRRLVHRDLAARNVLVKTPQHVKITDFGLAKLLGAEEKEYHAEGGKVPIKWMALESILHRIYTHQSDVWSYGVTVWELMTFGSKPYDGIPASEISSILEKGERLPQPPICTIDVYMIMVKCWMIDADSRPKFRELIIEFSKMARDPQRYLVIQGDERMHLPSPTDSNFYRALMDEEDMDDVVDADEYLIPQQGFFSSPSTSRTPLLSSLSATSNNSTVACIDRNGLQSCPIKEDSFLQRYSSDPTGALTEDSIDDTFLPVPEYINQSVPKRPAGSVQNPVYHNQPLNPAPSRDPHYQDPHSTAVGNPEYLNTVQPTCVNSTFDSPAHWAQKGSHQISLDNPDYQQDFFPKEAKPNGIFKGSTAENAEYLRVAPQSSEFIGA
Procedure, shortened: as §2

[1] = molecular target: T5, EGFR[T790M/C797S/d746-750] (Homo sapiens, UniProt P00533, C797S/DEL746-750/T790M); test: Inhibition of EGFR[T790M/C797S/d746-750] biochemical enzymatic activity (HTRF); conditions: EGFR T790M-C797S-Del19, 1 mM ATP, 1 h, room temperature, read-out: IC50 (nM) @T790M - C797S - Del19
T5 construct: purchased Carna Bio
T5 sequence (P00533 with tags, fused parts or gaps DEL746-750/T790M/C797S limits assumed): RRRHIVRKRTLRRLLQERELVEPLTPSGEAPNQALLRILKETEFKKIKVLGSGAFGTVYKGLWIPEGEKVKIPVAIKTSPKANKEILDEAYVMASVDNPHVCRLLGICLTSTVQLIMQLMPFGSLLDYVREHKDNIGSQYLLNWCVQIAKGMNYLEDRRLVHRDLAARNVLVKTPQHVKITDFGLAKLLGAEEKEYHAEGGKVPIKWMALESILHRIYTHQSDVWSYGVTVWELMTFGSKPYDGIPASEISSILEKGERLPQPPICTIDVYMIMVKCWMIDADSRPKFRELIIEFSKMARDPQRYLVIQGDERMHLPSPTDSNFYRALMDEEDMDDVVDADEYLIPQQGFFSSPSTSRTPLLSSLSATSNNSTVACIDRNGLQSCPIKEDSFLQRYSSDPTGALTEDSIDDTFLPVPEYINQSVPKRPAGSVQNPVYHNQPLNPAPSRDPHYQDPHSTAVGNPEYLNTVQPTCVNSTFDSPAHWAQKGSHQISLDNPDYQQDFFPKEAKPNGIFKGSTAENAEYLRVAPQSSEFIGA
Procedure, shortened: as §2

EGFR[T790M/C797S/L858R] = molecular target: T6, EGFR[T790M/C797S/L858R] (Homo sapiens, UniProt P00533, C797S/L858R/T790M); test: Inhibition of EGFR[T790M/C797S/L858R] biochemical enzymatic activity (HTRF); conditions: EGFR T790M-C797S-L858R, 1 mM ATP, 1 h, room temperature, read-out: IC50 (nM) @T790M- C797S - L858R
T6 construct: purchased Carna Bio
Procedure, shortened: as §2

EGFR Exon19Del = molecular target: T7, EGFR Exon19Del (Homo sapiens, UniProt P00533, DEL746-750); test: Inhibition of EGFR Exon19Del biochemical enzymatic activity (HTRF); conditions: EGFR Del19, 1 mM ATP, 1 h, room temperature, read-out: IC50 @Del19
T7 construct: purchased Carna Bio
T7 sequence (P00533 with tags, fused parts or gaps DEL746-750 limits assumed): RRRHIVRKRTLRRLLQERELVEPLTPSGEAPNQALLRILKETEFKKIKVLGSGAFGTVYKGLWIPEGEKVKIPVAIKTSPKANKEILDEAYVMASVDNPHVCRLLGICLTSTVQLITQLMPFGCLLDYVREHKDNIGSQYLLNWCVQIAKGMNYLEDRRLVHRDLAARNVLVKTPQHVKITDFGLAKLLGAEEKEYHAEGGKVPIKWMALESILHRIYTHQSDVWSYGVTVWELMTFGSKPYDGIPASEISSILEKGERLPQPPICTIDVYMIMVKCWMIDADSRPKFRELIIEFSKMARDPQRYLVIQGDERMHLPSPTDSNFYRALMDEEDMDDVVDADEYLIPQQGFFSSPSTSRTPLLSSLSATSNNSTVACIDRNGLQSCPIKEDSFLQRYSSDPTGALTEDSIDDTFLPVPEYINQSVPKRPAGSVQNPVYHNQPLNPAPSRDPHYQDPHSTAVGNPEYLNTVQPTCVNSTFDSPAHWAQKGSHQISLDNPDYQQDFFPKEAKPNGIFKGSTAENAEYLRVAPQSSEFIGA
Procedure, shortened: as §2

EGFR L858R = molecular target: T8, EGFR L858R (Homo sapiens, UniProt P00533, L858R); test: Inhibition of EGFR L858R biochemical enzymatic activity (HTRF); conditions: 1 mM ATP, 1 h, room temperature, read-out: IC50 (nM) @L858R
T8 construct: purchased Carna Bio
Procedure, shortened: as §2

[2] = tested on: Ba/F3 cells expressing EGFR mutations; test: Cell proliferation assay, Ba/F3 cells expressing EGFR mutations (CellTiter-Glo, 72 hours); format: cell-based; conditions: CellTiter-Glo
Procedure, shortened: as §1

EGFR (d746-750 C797S) = molecular target: T9, EGFR (d746-750 C797S) (Homo sapiens, UniProt P00533, C797S/DEL746-750); test: Inhibition of EGFR (d746-750 C797S) biochemical enzymatic activity (HTRF); conditions: EGFR Del19-C797S, 1 mM ATP, 1 h, room temperature, read-out: IC50 (nM) @Del19-C797S
T9 construct: purchased signalchem
Procedure, shortened: as §2

A-431 = test: Cell proliferation GI50, A-431 cells (Table 6); format: cell-based
[3] = BaF3 cells, EGFR DEL19-C797S, read-out: DEL19-C797S/BaF3 GI50
[4] = BaF3 cells, EGFR DEL19-T790-C797S, read-out: DEL19-T790-C797S/BaF3 GI50
[5] = BaF3 cells, EGFR L858R, read-out: L858R/BaF3 GI50
[6] = BaF3 cells, EGFR L858R-C797S, read-out: L858R-C797S/BaF3 GI50
[7] = BaF3 cells, EGFR L858R-T790-C797S, read-out: L858R-T790-C797S/BaF3 GI50
[8] = BaF3 cells, EGFR L858R-T790M, read-out: L858R-T790M/BaF3 GI50
[9] = EGFR DEL19-T790M, read-out: DEL19-T790M GI50

| IC50 (EGFR (C797S L858R)) | IC50 (EGFR L858R/T790M) | IC50 (EGFR Exon19Del/T790M) | IC50 (EGFR wild type) | IC50 [1] | IC50 (EGFR[T790M/C797S/L858R]) | IC50 (EGFR Exon19Del) | IC50 (EGFR L858R) | IC50 (EGFR (d746-750 C797S)) | GI50 (PC-9) | GI50 [2, 3] | GI50 [2, 4] | GI50 [2, 5] | GI50 [2, 6] | GI50 [2, 7] | GI50 [2, 8] | GI50 [2, 9] | GI50 (A-431; A-431 cells) | SMILES | further results |
| --- | --- | --- | --- | --- | --- | --- | --- | --- | --- | --- | --- | --- | --- | --- | --- | --- | --- | --- | --- |
| 4720 nM | 2610 nM | 11 nM | > 5000 nM | 11 nM | 807 nM | 202 nM | > 5000 nM | 140 nM | – | – | – | – | – | – | – | – | – | Cn1ncc2c1OCCN1CC3CCC(C3)(C1)n1c(nc3cc(Br)ccc31)NC(=O)c1cc-2c(=O)n(C)c1 (stereo not drawn) [Example A59, 6-Bromo-15,21-dimethyl-23-oxa-2,9,11,15,20,21,26-heptaazaheptacyclo[24.4.1.1^{1,28}.1^{13,17}.0^{2,10}.0^{3,8}.0^{18,22}]tritriaconta-3,5,7,9,13,17(33),18(22),19-octaene-12,16-dione] | GI50 (PC-9; Homo sapiens, PC-9, 72 h): 295 nM; GI50 ([2]; Mus musculus, BaF3, 72 h, BaF3 cells, EGFR DEL19-C797S, read-out: DEL19-C797S/BaF3 GI50): 32 nM; GI50 ([2]; Mus musculus, BaF3, 72 h, BaF3 cells, EGFR DEL19-T790-C797S, read-out: DEL19-T790-C797S/BaF3 GI50): 75 nM; GI50 ([2]; Mus musculus, BaF3, 72 h, BaF3 cells, EGFR L858R, read-out: L858R/BaF3 GI50): 201 nM; GI50 ([2]; Mus musculus, BaF3, 72 h, BaF3 cells, EGFR L858R-C797S, read-out: L858R-C797S/BaF3 GI50): 222 nM; GI50 ([2]; Mus musculus, BaF3, 72 h, BaF3 cells, EGFR L858R-T790-C797S, read-out: L858R-T790-C797S/BaF3 GI50): 160 nM; GI50 ([2]; Mus musculus, BaF3, 72 h, BaF3 cells, EGFR L858R-T790M, read-out: L858R-T790M/BaF3 GI50): 964 nM; GI50 ([2]; Mus musculus, BaF3, 72 h, EGFR DEL19-T790M, read-out: DEL19-T790M GI50): 140 nM; GI50 (A-431; Homo sapiens, A-431, A-431 cells): 1140 nM |
| > 5000 nM | > 5000 nM | 141 nM | > 5000 nM | 117 nM | > 5000 nM | 276 nM | > 5000 nM | 196 nM | 633 nM | 96 nM | 166 nM | 315 nM | 519 nM | 403 nM | 1400 nM | 285 nM | 6550 nM | CN1CCN(c2ccc3c(c2)nc2n3C34CCC(CN(CCOc5c(cnn5C)-c5cc(cn(C)c5=O)C(=O)N2)C3)C4)CC1 (stereo not drawn) [Example A60A, 15,21-dimethyl-6-(4-methylpiperazin-1-yl)-23-oxa-2,9,11,15,20,21,26-heptaazaheptacyclo[24.4.1.1^{1,28}.1^{13,17}.0^{2,10}.0^{3,8}.0^{18,22}]tritriaconta-3,5,7,9,13,17(33),18(22),19-octaene-12,16-dione] | – |
| 65 nM | 49 nM | 0.82 nM | 4480 nM | 0.81 nM | 44 nM | 3.2 nM | 135 nM | 1.7 nM | 15 nM | 1.4 nM | 4.4 nM | 21 nM | 15 nM | 8.4 nM | 53 nM | 6.9 nM | 1340 nM | CN1CCN(c2ccc3c(c2)nc2n3C34CCC(CN(CCOc5c(cnn5C)-c5cc(cn(C)c5=O)C(=O)N2)C3)C4)CC1 (stereo not drawn) [Example A60B, 15,21-dimethyl-6-(4-methylpiperazin-1-yl)-23-oxa-2,9,11,15,20,21,26-heptaazaheptacyclo[24.4.1.1^{1,28}.1^{13,17}.0^{2,10}.0^{3,8}.0^{18,22}]tritriaconta-3,5,7,9,13,17(33),18(22),19-octaene-12,16-dione] | – |
